# Measured values taken from ChEMBL document CHEMBL3217628, “Benzisothiazolones arrest the cell cycle at the G2/M phase and induce apoptosis in HeLa cells” (Medchemcomm, 2013).
# Active and inactive are the calls of the source. The calls are words filed in the database; no cut-off is given here.
# Key:
# SiHa = experiment: Cytotoxicity against human SiHa cells after 72 hrs by MTT assay; format: functional, cell-based
# SW480 = experiment: Cytotoxicity against human SW480 cells after 72 hrs by MTT assay; format: functional, cell-based; settings: SW480, 72 h
# HeLa [1] = experiment: Cytotoxicity against human HeLa cells after 72 hrs by MTT assay; format: functional, cell-based
# [2] = Solubility of the compound in DMSO; format: physicochemical
# HeLa [3] = experiment: Induction of apoptosis in human HeLa cells assessed as disruption of mitochondrial membrane potential at […] after 72 hrs using JC1 dye by fluorescence microscope analysis; format: functional, cell-based
# HeLa [4] = experiment: Induction of apoptosis in human HeLa cells assessed as cleaved caspase-3 level at […] after 48 hrs by Western blot analysis; format: functional, cell-based
# HeLa [5] = experiment: Induction of apoptosis in human HeLa cells assessed as disruption of mitochondrial membrane potential at 50 uM after 72 hrs using JC1 dye by fluorescence microscope analysis; format: functional, cell-based
# HeLa [6] = experiment: Induction of apoptosis in human HeLa cells assessed as formation of DNA fragmentation at 50 uM after 72 hrs using ethidium bromide staining by 2% agarose gel electrophoresis assay; format: functional, cell-based
# HeLa [7] = experiment: Cell cycle arrest in human HeLa cells assessed as apoptotic cells at 50 uM after 48 hrs using propidium iodide staining by flow cytometry (reference value: 7.3%); format: functional
# HeLa [8] = experiment: Cell cycle arrest in human HeLa cells assessed as accumulation at G2/M phase at 50 uM after 48 hrs using propidium iodide staining by flow cytometry (reference value: 14.3%); format: functional
solubility [2],Structure (SMILES),IC50 (SiHa) [µM],IC50 (SW480) [µM],IC50 (HeLa [1]) [µM],other results
–,C[C@H](c1ccccc1)n1sc2ccccc2c1=O,32.3,43.1,43.7,–
soluble,COc1ccc(-n2sc3ccccc3c2=O)cc1,–,–,–,–
soluble,O=c1c2ccccc2sn1-c1ccccc1[N+](=O)[O-],–,–,–,–
–,CC(=O)O[C@H]1C(=O)[C@@]2(C)[C@H]([C@H](OC(=O)c3ccccc3)[C@]3(O)C[C@H](OC(=O)[C@H](O)[C@@H](NC(=O)c4ccccc4)c4ccccc4)C(C)=C1C3(C)C)[C@]1(OC(C)=O)CO[C@@H]1C[C@@H]2O,–,–,–,Activity (HeLa [3]): Active; Activity (HeLa [4]): Active
soluble,O=c1c2ccccc2sn1-c1ccccc1,–,–,–,–
–,O=c1c2ccccc2sn1Cc1ccc2c(c1)OCO2,29.3,46.3,37.3,–
–,C[C@@H](c1ccccc1)n1sc2ccccc2c1=O,35.9,41.8,30.9,–
–,O=c1c2ccccc2sn1C1CCCCC1,48.3,48.8,24.8,Activity (HeLa [5]): Active; Activity (HeLa [6]): Active; Activity (HeLa [7]): 23.4%; Activity (HeLa [8]): 26.6%
soluble,COc1ccccc1-n1sc2ccccc2c1=O,–,–,–,–
–,CC(C)Cn1sc2ccccc2c1=O,38.1,47.8,31.8,–

Structure (SMILES),solubility [2],IC50 (SiHa) [µM],IC50 (SW480) [µM],IC50 (HeLa [1]) [µM],other results
Cc1ccc(-n2sc3ccccc3c2=O)cc1,soluble,–,–,–,–
O=C(c1ccccc1)c1cc(Cl)ccc1-n1sc2ccccc2c1=O,soluble,–,–,–,–
